According to BindingDB's records for doi:10.7270/Q2KH0KWR (Burnham Center For Chemical Genomics, 2012):

Target: T1, Tyrosine-protein phosphatase non-receptor type 5 (Homo sapiens, UniProt P54829)
T1 sequence (P54829 whole entry): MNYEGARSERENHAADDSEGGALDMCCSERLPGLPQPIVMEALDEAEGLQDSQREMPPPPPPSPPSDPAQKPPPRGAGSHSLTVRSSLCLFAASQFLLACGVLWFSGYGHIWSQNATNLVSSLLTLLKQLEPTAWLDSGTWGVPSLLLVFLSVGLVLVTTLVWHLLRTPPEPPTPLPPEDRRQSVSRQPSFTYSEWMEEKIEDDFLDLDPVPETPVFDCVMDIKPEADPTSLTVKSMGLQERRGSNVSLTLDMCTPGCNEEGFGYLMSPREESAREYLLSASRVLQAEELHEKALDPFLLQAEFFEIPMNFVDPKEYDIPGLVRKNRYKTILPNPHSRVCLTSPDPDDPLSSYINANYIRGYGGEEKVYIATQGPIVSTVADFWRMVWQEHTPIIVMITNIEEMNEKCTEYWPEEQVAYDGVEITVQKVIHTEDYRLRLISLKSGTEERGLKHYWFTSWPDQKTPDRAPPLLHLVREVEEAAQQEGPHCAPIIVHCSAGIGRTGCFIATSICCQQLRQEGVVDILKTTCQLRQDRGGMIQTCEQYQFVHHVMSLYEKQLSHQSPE
Test: STEP phosphatase inhibitor potency, dose response, orthogonal assay for STEP inhibitor project, biochemical, colorimetric absorbance (AID 624207)

[1] = inactive by the depositor's call

Row | SMILES | IC50 [µM] | IC50 [1] [µM]
1 | Nc1ccc2c(O)cc(S(=O)(=O)O)cc2c1 | > 80 | 
2 | O=S(=O)(O)c1cc(O)c2cc(Nc3ccccc3)ccc2c1 |  | 24.1
3 | S=C1N=C(C23CC4CC(CC(C4)C2)C3)CC(c2ccc3c(c2)OCO3)N1 (configuration not stated) | > 80 | 
4 | O=S(=O)(Nc1ccc(Cl)cc1)c1ccc(N2CCOCC2)c(NC(=S)NCCN2CCOCC2)c1 |  | 21.3
5 | O=C(CCc1ccccc1)NNC(=O)c1ccc(NC(=O)c2ccccc2)cc1 |  | 37.9
6 | COc1cccc(Nc2nn3c(=O)c4ccccc4nc3s2)c1 |  | 58.2
7 | CCc1ccc(NC(=O)Cc2cn(C)c3ccccc23)cc1 | > 80 | 
8 | CCC(CC)c1nnc(NC(=O)c2cc(C(=O)OC)cc([N+](=O)[O-])c2)s1 |  | 21.8
9 | Cc1ccc(-c2nc3ncccc3o2)cc1NC(=O)CC(C)C | > 80 | 
10 | O=C(N/N=C/c1ccncc1)c1cccc(S(=O)(=O)Nc2ccc(Cl)cc2)c1 | 19.7 | 
11 | COc1cc(NC(=S)N2CCN(C)CC2)c(OC)cc1Cl | > 80 | 
12 | CC(=O)N1CCC(N(CCN2CCOCC2)C(=S)Nc2ccc(C)cc2)CC1 | > 80 | 
13 | CN1CCC2(CC1)N=C(c1ccc(F)cc1)C(=S)N2 |  | 71.7
14 | Cc1ccc(N=C(S)N(CCN(C)C)Cc2cccs2)c(C)c1 |  | 56
15 | S=C(NCCCN1CCOCC1)Nc1ccc(-c2nc3ccccc3[nH]2)cc1 |  | 79.6
16 | COc1ccc(NC(=O)c2cc(=O)c3ccccc3o2)cc1Cl | > 80 | 
17 | O=C1NN(c2cccc(Br)c2)C(=O)/C1=C\c1ccc(N2CCOCC2)cc1 | > 80 | 
18 | Cc1ccc(S(=O)(=O)c2cnc3ccc(Cl)cc3c2O)cc1 | > 80 | 
19 | O=C(C=Cc1ccc(Cl)cc1)NC(=S)Nc1ccc(C(=O)O)cc1 | > 80 | 
20 | CC(/N=N/c1ccc(S(N)(=O)=O)cc1[N+](=O)[O-])c1cccs1 (configuration not stated) | > 80 | 
21 | CC(=O)c1ccc(S(=O)(=O)Nc2cccc(-n3cnnn3)c2)cc1 | > 80 | 
22 | NN=C1C(Cl)=C(Cl)C(Cl)=C1Cl | > 80 | 
23 | Cc1ccc(S(=O)(=O)N2CCCCC2)cc1NC(=O)c1ccc(=O)[nH]c1 | > 80 | 
24 | Cc1ccc(Cn2cc(C=O)c(-c3ccc(C)cc3)n2)cc1 [3-(4-methylphenyl)-1-[(4-methylphenyl)methyl]-4-pyrazolecarboxaldehyde] | > 80 | 

Next, values leading:

Row | IC50 [µM] | IC50 [1] [µM] | SMILES
25 |  | 25.9 | NC(=O)C1(N2CCCCC2)CCN(C(=S)Nc2ccc(S(N)(=O)=O)cc2)CC1 [1'-({[4-(aminosulfonyl)phenyl]amino}carbonothioyl)-1,4'-bipiperidine-4'-carboxamide]
26 |  | 41.2 | S=C(NCCc1ccccc1)Nc1c(Cl)cccc1Cl [1-(2,6-dichlorophenyl)-3-(2-phenylethyl)thiourea]
27 | 18.2 |  | COc1ccc(NC(S)=NCCN2CCC(C)CC2)cc1Cl [1-(3-chloro-4-methoxyphenyl)-3-[2-(4-methyl-1-piperidinyl)ethyl]thiourea]
28 |  | 31.1 | COc1ccc(NC(=S)NCCCN2CCCC2)cc1Cl [1-(3-chloro-4-methoxyphenyl)-3-[3-(1-pyrrolidinyl)propyl]thiourea]
29 | > 80 |  | COCCCN(C(S)=Nc1c(C)cc(C)cc1C)C(C)c1ccccn1 (configuration not stated) [1-(3-methoxypropyl)-1-[1-(2-pyridinyl)ethyl]-3-(2,4,6-trimethylphenyl)thiourea]
30 | > 80 |  | CC(C)OCCCN=C(S)Nc1ccc(S(N)(=O)=O)cc1 [1-(3-propan-2-yloxypropyl)-3-(4-sulfamoylphenyl)thiourea]
31 |  | 42 | CN1CCN(C(=S)c2ccc(Br)cc2)CC1 [1-[(4-bromophenyl)carbonothioyl]-4-methylpiperazine]
32 |  | 57.9 | Cc1nn(C)cc1C=NNC(=S)Nc1ccccc1 [1-[(E)-(1,3-dimethylpyrazol-4-yl)methylideneamino]-3-phenyl-thiourea]
33 | 12.1 |  | Cc1cc(C)c(NC(S)=NCC2CCN(C(C)c3ccccc3)C2)c(C)c1 (configuration not stated) [1-[[1-(1-phenylethyl)-3-pyrrolidinyl]methyl]-3-(2,4,6-trimethylphenyl)thiourea]
34 | > 80 |  | Cc1c(C)n(C(=O)CSc2nc3ccccc3[nH]2)c2ccccc12 [2-(1H-benzimidazol-2-ylthio)-1-(2,3-dimethyl-1-indolyl)ethanone]
35 |  | 57 | CCCN(CC(=O)Nc1ccccc1OC)C(=O)Cc1ccc2c(c1)CCC2 [2-(2,3-dihydro-1H-inden-5-yl)-N-[2-[(2-methoxyphenyl)amino]-2-oxidanylidene-ethyl]-N-propyl-ethanamide]
36 |  | 30.6 | CCCc1cc(=O)oc2cc(OCC(=O)Nc3ccc(S(N)(=O)=O)cc3)ccc12 [2-(2-oxo-4-propylchromen-7-yl)oxy-N-(4-sulfamoylphenyl)acetamide]
37 | > 80 |  | CCOc1cc(CN=Nc2nc(O)c(CC(=O)O)s2)ccc1OCc1ccc(Cl)cc1Cl [2-[2-[(N''E)-N''-[4-(2,4-dichlorobenzyl)oxy-3-ethoxy-benzylidene]hydrazino]-4-keto-2-thiazolin-5-yl]acetic acid]
38 | > 80 |  | O=C(O)c1ccc2c(c1)C(=O)N(c1cccc(-c3nc4ccccc4s3)c1)C2=O [2-[3-(1,3-benzothiazol-2-yl)phenyl]-1,3-bis(oxidanylidene)isoindole-5-carboxylic acid]
39 | > 80 |  | CCN1CCN(C(=S)c2ccc(OCC(=O)NCc3ccccc3)cc2)CC1 [2-[4-(4-ethylpiperazin-1-yl)carbothioylphenoxy]-N-(phenylmethyl)ethanamide]
40 | 37.1 |  | CCc1ccc(NC2=NC(=O)C(=Cc3ccc(OCC(=O)O)cc3)S2)cc1 [2-[4-[(Z)-[2-(4-ethylanilino)-4-oxo-5-thiazolylidene]methyl]phenoxy]acetic acid]
41 |  | 26.3 | Cc1c(CC(=O)O)c(=O)oc2c(C)c(OCc3ccccc3Br)ccc12 [2-[7-[(2-bromophenyl)methoxy]-4,8-dimethyl-2-oxochromen-3-yl]acetic acid]

Row | IC50 [µM] | IC50 [1] [µM] | SMILES
42 | 8.34 |  | Cc1cccc(Nc2nn3c(=O)c4ccccc4nc3s2)c1 [2-[(3-methylphenyl)amino]-5H-[1,3,4]thiadiazolo[2,3-b]quinazolin-5-one]
43 | > 80 |  | Cc1ccc(-c2nc(NC(=O)CSc3cc(C)c4ccccc4n3)ns2)cc1 [2-[(4-methyl-2-quinolyl)thio]-N-[5-(p-tolyl)-1,2,4-thiadiazol-3-yl]acetamide]
44 | > 80 |  | COc1cc(/C=C2/SC(=S)N(CC(=O)O)C2=O)ccc1OCC(=O)Nc1ccc(C)c(C)c1 [2-[(5E)-5-[[4-[2-[(3,4-dimethylphenyl)amino]-2-oxidanylidene-ethoxy]-3-methoxy-phenyl]methylidene]-4-oxidanylidene-2-sulfanylidene-1,3-thiazolidin-3-yl]ethanoic acid]
45 | > 80 |  | CCCCCn1c(N)c(-c2nc3ccccc3o2)c2c([N+](=O)[O-])nn(C)c(=O)c21 [2-amino-1-amyl-3-(1,3-benzoxazol-2-yl)-6-methyl-4-nitro-pyrrolo[2,3-d]pyridazin-7-one]
46 |  | 76.5 | Cc1ccc(-n2c(C)nc3oc4ccccc4c(=O)c3c2=O)cc1 [2-methyl-3-(4-methylphenyl)[1]benzopyrano[2,3-d]pyrimidine-4,5-dione]
47 | > 80 |  | O=C(NN=Cc1ccc(F)cc1)c1cc(-c2ccc3c(c2)OCO3)n[nH]1 [3-(1,3-benzodioxol-5-yl)-N-[(E)-(4-fluorobenzylidene)amino]-1H-pyrazole-5-carboxamide]
48 | 10.6 |  | COc1ccc(NC(=S)N(CCC(C)C)C2CCN(C(C)C)CC2)cc1Cl [3-(3-chloranyl-4-methoxy-phenyl)-1-(3-methylbutyl)-1-(1-propan-2-ylpiperidin-4-yl)thiourea]
49 | > 80 |  | COc1ccc(-n2nc(C(=O)NCC(=O)Nc3ccccn3)c3ccccc3c2=O)cc1Cl [3-(3-chloranyl-4-methoxy-phenyl)-4-oxidanylidene-N-[2-oxidanylidene-2-(pyridin-2-ylamino)ethyl]phthalazine-1-carboxamide]
50 | 6.4 |  | Cc1c(CCC(=O)O)c(=O)oc2c(C)c(OCc3ccccc3Cl)ccc12 [3-[7-[(2-chlorophenyl)methoxy]-4,8-dimethyl-2-oxochromen-3-yl]propanoic acid]
51 | > 80 |  | Cc1c(CCC(=O)O)c(=O)oc2c(C)c(OCc3cc4c(cc3Cl)OCO4)ccc12 [3-[7-[(6-chloranyl-1,3-benzodioxol-5-yl)methoxy]-4,8-dimethyl-2-oxidanylidene-chromen-3-yl]propanoic acid]
52 | 1.55 |  | O=C(CSc1nc(-c2ccc(F)cc2)nc2c1Cc1ccccc1O2)Nc1cccc(C(=O)O)c1 [3-[({[2-(4-fluorophenyl)-5H-chromeno[2,3-d]pyrimidin-4-yl]thio}acetyl)amino]benzoic acid]
53 |  | 45.6 | O=C(N/N=C/c1cccnc1)c1ccc(NC(=O)c2cccc(Cl)c2)cc1 [3-chloro-N-[4-[oxo-[(2E)-2-(3-pyridinylmethylidene)hydrazinyl]methyl]phenyl]benzamide]
54 |  | 60.5 | Cn1c(=O)[nH]c(=O)c2c1nc(SCCN1CCCCC1)n2CCCc1ccccc1 [3-methyl-7-(3-phenylpropyl)-8-[2-(1-piperidinyl)ethylthio]purine-2,6-dione]
55 | > 80 |  | O=C1Nc2ccc3sc4ccccc4c3c2C1=O [3H-6-Thia-3-aza-cyclopenta[c]fluorene-1,2-dione]
56 | > 80 |  | COc1cc(/C=C2/C(=O)NN(c3cccc(C)c3)C2=O)cc([N+](=O)[O-])c1O [4-(4-hydroxy-3-methoxy-5-nitrobenzylidene)-1-(3-methylphenyl)-3,5-pyrazolidinedione]
57 | 7.9 |  | CN(C)c1ccc(C(=O)OCC(=O)Nc2ccc(S(N)(=O)=O)cc2)cc1 [4-(dimethylamino)benzoic acid [2-oxo-2-(4-sulfamoylanilino)ethyl] ester]
